A short description of data set [1]: physchem. As to conditions: buffer, pH 7.4.
Data set [2] can be described thus: physchem. Conditions: buffer, pH 7.4. The source holds these as a separate data set.
A short description of data set [3]: in vitro. Conditions: human, Caco-2.
Description: Passive permeability from apical to basolateral side in human Caco-2 cells
The nature of data set [4]: in vitro. As to conditions: human, liver microsomes.
Description: Metabolic stability in human liver microsomes
Data set [5] in a line: Stability in presence of glutathione by LC-MS analysis. As to conditions: solution with glutathione. It is filed as physicochemical.
A short description of data set [6]: Stability in absence of glutathione by LC-MS analysis. It is filed as physicochemical. Conditions: gsh.
Data set [7] can be described thus: physchem.
Description: Dissociation constant, pKa2 of compound by spectrophotometry
A short description of data set [8]: physchem. The source holds these as a separate data set.
Description: Dissociation constant, pKa1 of compound by spectrophotometry
Data set [9] in a line: physchem. As to conditions: 0.1 M HCl solution, pH 1.
Description: Half life in 0.1 M HCl solution at pH 1.0 at 25 degC by UPLC analysis
Data set [10] is described as follows: physchem. Conditions: 20 mM sodium phosphate buffer, pH 7.4.
Description: Half life in 20 mM sodium phosphate buffer at pH 7.4 at 25 degC by UPLC analysis
A short description of data set [11]: physchem. Conditions: 20 mM sodium carbonate buffer, pH 10.
Description: Half life in 20 mM sodium carbonate buffer at pH 10 at 25 degC by UPLC analysis
A short description of data set [12]: Stability in neat […] DMSO/H2O 1:4 mixture assessed as compound hydrolysis at 10 mM at room temperature under air without protection from sunlight measured after 0.5 hrs by LC-MS analysis. As to conditions: 10000 µM. It is filed as physicochemical.
Data set [13] is described as follows: Stability in neat DMSO at 10 mM at room temperature under air without protection from sunlight measured after 1 month by LC-MS analysis. It is filed as physicochemical. Conditions: 730 h, 10000 µM, time 1 months.
The nature of data set [14]: Stability in neat […] DMSO/H2O 1:4 mixture assessed as compound hydrolysis at 10 mM at room temperature under air without protection from sunlight measured after 1 month by LC-MS analysis. It counts as physicochemical. Conditions: 730 h, 10000 µM, time 1 months.
A short description of data set [15]: Stability in neat […] DMSO/H2O 1:4 mixture assessed as compound hydrolysis at 10 mM at room temperature under air without protection from sunlight measured after 1 month by NMR analysis. It is filed as physicochemical. Conditions: 730 h, 10000 µM, time 1 months.
A short description of data set [16]: Stability in neat […] DMSO/H2O 1:4 mixture assessed as compound hydrolysis at 10 mM at room temperature under air without protection from sunlight measured after 24 hrs by LC-MS analysis. It counts as physicochemical. Conditions: read-out: Drug degradation.

One may read the chromatographic logD as lipophilicity estimated from chromatographic retention. Low values mean a more hydrophilic compound, high ones a more lipophilic compound. The logD is the decadic logarithm of the distribution of all forms, ionised or not, between an organic phase and buffer at a given pH. As usually defined, the Papp A→B is how fast a substance crosses the layer from the apical side. A high value points to fast passage. The term microsomal CLint denotes a measure of how fast metabolising enzymes remove a compound, apart from limits set by blood flow. Read a low microsomal CLint as slow turnover. `CC(=O)c1ccc(N2CCN(C(=O)c3cnn(C)c3)CC2)cc1`: the chromatographic logD in the data set “physchem [1]” was 0.6. In the data set “physchem [2]”, the logD came out at 1.1. The Papp A→B in “in vitro [3]” worked out at 42 ×10⁻⁶ cm/s. In addition, in “in vitro [4]”, the microsomal CLint was under 3 µL/min/mg.
`CC(=O)c1ccc(N2CCN(C(=O)c3cnn(C(C)C)c3)CC2)cc1` had a chromatographic logD in the data set “physchem [1]” of 1.5. In the data set “physchem [2]”, this molecule yielded a logD of 1.8. Also, the Papp A→B in the data set “in vitro [3]” turned out to be 40 ×10⁻⁶ cm/s. Besides, the microsomal CLint in the data set “in vitro [4]” was under 4.2 µL/min/mg.
Take `Cn1cc(Nc2nc(N[C@H]3CC[C@H](N(C)C)CC3)c3cccn3n2)cn1`: the chromatographic logD in “physchem [1]” was under 0. In the data set “physchem [2]”, the log distribution coefficient (logD) was 0.6. This molecule also showed a Papp A→B in “in vitro [3]” of 2.4 ×10⁻⁶ cm/s. Besides, the microsomal CLint in “in vitro [4]” is under 3 µL/min/mg.
As a reminder, the half-life is the time needed for the level to fall by half in the phase considered. As to `CCCCN(C(=O)F)c1ccc(C(=O)OCCN(C)C)cc1`, the half-life in [5] was determined as 1.1 h; in [6], 3.95 h.
For orientation: pKa means the pH at which an ionisable group is half protonated. As to `Cc1ccc(-c2cn(C)cn2)cc1NC(=O)c1ccc(OCc2ccccn2)cc1`, the figures for the pKa in the data set “physchem [7]” and in the data set “physchem [8]” were 3.9 and 5.8, respectively. In “physchem [1]”, the chromatographic logD was determined as 2.2. This molecule gave a logD in the data set “physchem [2]” of 2.7. The same molecule had a Papp A→B in “in vitro [3]” of 72 ×10⁻⁶ cm/s. The microsomal CLint in “in vitro [4]” came out at 4.8 µL/min/mg.
Turning to `CC(=O)c1ccc(N2CCN(C(=O)c3cnn(C(F)(F)F)c3)CC2)cc1`, the figures for the half-life in the data set “physchem [9]”, in the data set “physchem [10]” and in “physchem [11]” were 984 h, over 1730 h and 408 h, respectively. In addition, the chromatographic logD in the data set “physchem [1]” came to 2.3. For the same molecule, the logD in “physchem [2]” worked out at 1.9. This molecule registered an apical-to-basolateral permeability (Papp A→B) in “in vitro [3]” of 71 ×10⁻⁶ cm/s. In the data set “in vitro [4]”, this molecule showed a microsomal CLint of under 3 µL/min/mg.
For `CCN(c1ccccc1)C(F)(F)F`, the Stabilty entry in [12] is listed as “Unstable”; in [13] it was “Stable”.
With `FC(F)(F)N1CCN(c2ccccc2)CC1`, the results for the Stabilty result in [12] and in [13] were “Unstable” and “Stable”, respectively.
On to `Cc1cc(NS(=O)(=O)c2ccc(N(C)C(F)(F)F)cc2)no1`, for which the half-life in the data set “physchem [9]” was 4.8 h; in “physchem [10]”, 9.6 h; in “physchem [11]”, 7.2 h. The molecule also gave a chromatographic logD in the data set “physchem [1]” of 1.5. The same molecule showed a logD in the data set “physchem [2]” of 1.6.
Turning to `CCCCN(C)c1ccc(C(=O)OCCN(C)C)cc1`, in the data set “physchem [1]”, the chromatographic logD worked out at 3.3. The molecule further registered a logD in “physchem [2]” of 2.8.
In the case of `Cc1ccc(N(C)C(F)(F)F)cc1`, the Stabilty entry in [12] is given as “Unstable”; in [13], “Stable”.
`Cc1cc(NS(=O)(=O)c2ccc(N(C)C)cc2)no1`: the chromatographic logD in “physchem [1]” came to 1.3. This molecule returned a logD in “physchem [2]” of 0.6.
For the molecule `CN(c1ccccc1)C(F)(F)F`, the Stabilty result is given as “Unstable” in [12] and “Stable” in data set [13].
As to `COc1ccc(CC(=O)Nc2cnn(C(F)(F)F)c2)cc1OC`, the half-life in the data set “physchem [9]” is 288 h; in the data set “physchem [10]” it was over 1730 h; in the data set “physchem [11]”, over 1730 h. Also, in the data set “physchem [1]”, the chromatographic logD came to 2.2. This molecule also showed a logD in the data set “physchem [2]” of 2.4. Besides, in “in vitro [3]”, the Papp A→B came out at 56 ×10⁻⁶ cm/s. Further, the microsomal CLint in “in vitro [4]” turned out to be 53 µL/min/mg.
In the case of `CCCc1nn(C)c2c(=O)[nH]c(-c3cc(S(=O)(=O)N4CCN(C)CC4)ccc3CC)nc12`, the chromatographic logD in “physchem [1]” turned out to be 3.3. Moreover, the logD in “physchem [2]” was found to be 2.7.
For the molecule `FC(F)(F)n1c(-c2cscn2)nc2ccccc21`, the half-life in the data set “physchem [9]”, in “physchem [10]” and in “physchem [11]” was over 1730 h each time. For the same molecule, in the data set “physchem [1]”, the chromatographic logD was found to be 3.3. The same molecule showed a logD in “physchem [2]” of 3. The Papp A→B in the data set “in vitro [3]” was 58 ×10⁻⁶ cm/s. Also, in the data set “physchem [8]”, the pKa was under 2. The microsomal CLint in “in vitro [4]” came out at 39 µL/min/mg.
As to `CN(c1ccc(F)cc1)C(F)(F)F`, in data set [13], the Stabilty result is “Stable”.
On to `CCCCN(c1ccc(C(=O)OCCN(C)C)cc1)C(F)(F)F`, for which the half-life in the data set “physchem [9]”, in “physchem [10]” and in the data set “physchem [11]” was under 14.4 h each time. In addition, the chromatographic logD in “physchem [1]” is 4.9. The molecule also returned a logD in “physchem [2]” of over 4.
Regarding `CN(c1cccc(F)c1)C(F)(F)F`, in data set [13], the Stabilty result is recorded as “Stable”.
`COc1ccc(CC(=O)Nc2cnn(C)c2)cc1OC` had a chromatographic logD in the data set “physchem [1]” of 0.1. The logD in “physchem [2]” worked out at 0.9. In the data set “in vitro [3]”, this molecule yielded a Papp A→B of 42 ×10⁻⁶ cm/s. This molecule also showed an intrinsic metabolic clearance (microsomal CLint) in the data set “in vitro [4]” of under 3 µL/min/mg.
On the same counts, the results for `CC(=O)c1ccc(N2CCN(C(=O)c3cnn(C(C)(C)C)c3)CC2)cc1` are 2.2, 2.2, 66 ×10⁻⁶ cm/s and under 4.5 µL/min/mg.
For `FC(F)(F)N1CCc2ccccc21`, the Stabilty result in data set [12] was “Unstable”; in data set [13] it was “Stable”.
On to `COc1ccc(CC(=O)Nc2cnn(C(C)C)c2)cc1OC`, for which the chromatographic logD in “physchem [1]” came out at 0.9. In “physchem [2]”, this molecule came in with a logD of 1.6. This molecule yielded a Papp A→B in the data set “in vitro [3]” of 44 ×10⁻⁶ cm/s. This molecule also displayed a microsomal CLint in “in vitro [4]” of under 3.3 µL/min/mg.
For `FC(F)(F)n1cccn1`, the Stabilty result in [14], in data set [15] and in [13] was “Stable” throughout.
As for `CN(C)[C@H]1CC[C@H](Nc2nc(Nc3cnn(C(F)(F)F)c3)nn3cccc23)CC1`, the results for the half-life in the data set “physchem [9]”, in “physchem [10]” and in the data set “physchem [11]” were over 1730 h, over 1730 h and 1700 h, respectively. The chromatographic logD in “physchem [1]” is 2.2. Besides, the logD in “physchem [2]” came out at 2.2. In “in vitro [3]”, this molecule registered a Papp A→B of 12 ×10⁻⁶ cm/s. The same molecule had a microsomal CLint in the data set “in vitro [4]” of under 3 µL/min/mg.
For `CCCc1nn(C)c2c(=O)[nH]c(-c3cc(S(=O)(=O)N4CCN(C(F)(F)F)CC4)ccc3CC)nc12`, the half-life is under 31.2 h in the data set “physchem [9]”, under 19.2 h in the data set “physchem [10]” and under 12 h in the data set “physchem [11]”. This molecule yielded a chromatographic logD in the data set “physchem [1]” of over 5.3. This molecule gave a logD in “physchem [2]” of over 4.
In the data set “physchem [1]”, `CN(C)[C@H]1CC[C@H](Nc2nc(Nc3cnn(C(C)(C)C)c3)nn3cccc23)CC1` gave a chromatographic logD of 1.5. Moreover, the logD in “physchem [2]” was determined as 1.7. The Papp A→B in “in vitro [3]” was found to be 11 ×10⁻⁶ cm/s. The molecule also registered a microsomal CLint in “in vitro [4]” of under 3 µL/min/mg.
For `CC(C)n1cc(Nc2nc(N[C@H]3CC[C@H](N(C)C)CC3)c3cccn3n2)cn1` the same measures were 1.1, 1.4, 8.4 ×10⁻⁶ cm/s and under 3 µL/min/mg.
In “physchem [1]”, `COc1ccc(CC(=O)Nc2cnn(C(C)(C)C)c2)cc1OC` showed a chromatographic logD of 1.6. The logD in the data set “physchem [2]” stood at 2. In addition, the Papp A→B in “in vitro [3]” came out at 45 ×10⁻⁶ cm/s. Moreover, the microsomal CLint in the data set “in vitro [4]” is under 4.1 µL/min/mg.
On to `COc1ccc(N(C)C(F)(F)F)cc1`, for which the results for the Stabilty entry in data set [12] and in data set [13] were “Unstable” and “Stable”, respectively.
In “physchem [1]”, `Cn1c(-c2cscn2)nc2ccccc21` yielded a chromatographic logD of 1.5. In the data set “physchem [2]”, this molecule registered a log distribution coefficient (logD) of 2.3. In the data set “in vitro [3]”, this molecule had a Papp A→B of 72 ×10⁻⁶ cm/s. The molecule further yielded a pKa in the data set “physchem [8]” of 4.9. In the data set “in vitro [4]”, this molecule registered an intrinsic clearance (microsomal CLint) of 172 µL/min/mg.
Consider `CCOC(=O)N(Cc1ccccc1)C(F)(F)F`, for which the Stabilty result in data set [12] is “Unstable”; in [13], “Stable”.
For the molecule `CN(c1ccc(C#N)cc1)C(F)(F)F`, the degraded at 24 h, 10000 µM in data set [16] was determined as 24%. Besides, the Stabilty result in data set [13] is recorded as “Stable”.
Turning to `FC(F)(F)N1CCCc2ccccc21`, the values for the Stabilty entry in data set [12] and in data set [13] were “Unstable” and “Stable”, respectively.
Turning to `CN(c1ccc(C(F)(F)F)cc1)C(F)(F)F`, the degraded at 24 h, 10000 µM in [16] was 90%. Also, in data set [13], the Stabilty result is “Stable”.
Regarding `FC(F)(F)n1cnc2ccccc21`, the Stabilty entry in data set [14], in [15] and in [13] was “Stable” in each case.
